Legend:
[1] = method code SF-AS, from DOI: 10.1002/jps.2600741028, PMID: 4078715
[2] = method code SF, from DOI: 10.1021/jm0498699.s001, PMID: 15163209
[3] = method code SF-RC, from DOI: 10.1016/s0969-8051(98)00005-5, PMID: 9720665; conditions: pH 7.0
[4] = not given; remark: listed apart in the source
[5] = method code SF, from DOI: 10.1016/0048-3575(89)90162-4
[6] = method code SF, from DOI: 10.3109/00498258909043190, PMID: 2618089; conditions: pH 10.8
[7] = method code SF, from DOI: 10.1016/0048-3575(74)90109-6
[8] = not given; remark: listed apart in the source
[9] = not given; remark: listed apart in the source
[10] = not given; remark: listed apart in the source
[11] = method code SF, from DOI: 10.1021/jm00114a024, PMID: 1920362
[12] = method code SF-EIA, from DOI: 10.1016/j.carres.2004.12.038, PMID: 15797137
[13] = not given; remark: listed apart in the source
[14] = method code SF-HPLC, from DOI: 10.1111/j.1747-0285.2011.01193.x, PMID: 21777394; conditions: pH 7.4
[15] = method code SF-AS, from PMID: 11446164; conditions: pH 5.9
[16] = not given; remark: listed apart in the source
[17] = method code SF, from DOI: 10.1021/jm00019a019, PMID: 7562920; conditions: pH 10.0
[18] = not given; remark: listed apart in the source
[19] = method code SF-RC, from DOI: 10.1111/j.2042-7158.1987.tb06949.x, PMID: 2882008; conditions: pH 1.0
[20] = method code RP-HPLC, from DOI: 10.1016/0143-7208(91)85018-4; conditions: pH 7.0
[21] = method code SF-AS, from DOI: 10.1016/0378-5173(88)90083-x; conditions: pH 7.3
[22] = method code SF, from DOI: 10.1007/bf01610114, PMID: 6839039
[23] = method code SF-RC, from DOI: 10.1002/ps.2780240105; conditions: pH 7.0
[24] = method code SF-AS, from DOI: 10.1021/jm991080o, PMID: 10579844; conditions: pH 7.4
[25] = pH 7.4
[26] = method code SF-AS, from PMID: 7849133; conditions: pH 3.6
[27] = not given; remark: listed apart in the source
[28] = method code SF-RC, from DOI: 10.1021/jm901850k, PMID: 20411954; conditions: pH 7.4
[29] = from Afshan, A.; Jehangir, M.; Amin, W.; Mujahid, A. (2000). Study of various esters of ethylcysteine acid dimer as brain perfusion imaging agents and formulation into single vial kit for labelling with …; conditions: pH 7.5
[30] = method code SF-AS, from PMID: 19779; conditions: pH 2.0
[31] = method code SF-AS, from DOI: 10.1021/jm00384a018, PMID: 3806586
[32] = method code SF-RC, from DOI: 10.1002/jlcr.1863; conditions: pH 7.4
[33] = method code SF-AS, from DOI: 10.1016/0048-3575(87)90152-0
[34] = not given; remark: listed apart in the source
[35] = method code SF-RC, from DOI: 10.1021/es00096a007
[36] = not given; remark: listed apart in the source
[37] = method code SF-AS, from DOI: 10.1002/jps.2600620542, PMID: 4705706
[38] = method code SF-GLC, from DOI: 10.1002/ps.2780120408; conditions: pH 7.0
[39] = method code SF-HPLC, from DOI: 10.1021/jm030477w, PMID: 15084119; conditions: pH 7.4
[40] = method code SF, from DOI: 10.1021/jm950585l, PMID: 8632436
[41] = method code SF-RC, from DOI: 10.1021/jm0607193, PMID: 17004725
[42] = method code SF-HPLC, from DOI: 10.1016/0928-0987(95)00046-1; conditions: pH 4.0
[43] = method code SF-AS, from DOI: 10.1002/ardp.19843170314
[44] = method code SF-AS, from DOI: 10.1016/0223-5234(94)90063-9; conditions: pH 2.0
[45] = method code SF-RC, from DOI: 10.1016/j.nucmedbio.2009.09.005, PMID: 20447558; conditions: pH 7.4
[46] = method code SF-RC, from PMID: 1811623
[47] = method code SF-AS, from DOI: 10.1021/jm00160a012, PMID: 3761307; conditions: pH 7.4

COc1ccc(C=[N+]([O-])c2ccccc2)cc1
logP [1]: 1.94

COC(=O)CCNC(=O)c1cc(N2CC2)c([N+](=O)[O-])cc1[N+](=O)[O-]
logP [2]: 0.56

OC1OC2COC(c3ccc(I)cc3)OC2C(O)C1O (stereo not drawn)
logD [3]: 1.9

O=C(O)C1(O)c2ccccc2-c2ccc(Cl)cc21 (stereo not drawn)
logP: 3.22

CCCCC(O)(Cn1cncn1)c1ccc(Cl)cc1Cl (stereo not drawn)
logP [4]: 3.9

OC1(c2ccccc2Cl)CCCCC1n1cncn1 (stereo not drawn)
logP [5]: 2.68

O=C(Cn1c(=O)sc2ccc(Cl)cc21)N1CCNCC1
logD [6]: 1.35

Fc1ccc(C(c2ccc(F)cc2)C(Cl)(Cl)Cl)cc1
logP [7]: 4.62

CCn1cc(C(=O)O)c(=O)c2cc3nc[nH]c3cc21
logP [8]: 0.41

OC(Cn1cncn1)(Cn1cncn1)c1ccc(Cl)cc1Cl
logP [9]: 1.1

Ic1ccc2nc(-c3ccc(-c4nnn[nH]4)cc3)cn2c1
logP [10]: 1.73

CN(CCN)S(=O)(=O)c1ccc(C(C)(C)[N+](=O)[O-])c([N+](=O)[O-])c1
logP [11]: 0.62

OC[C@H]1O[C@H](O[C@H]2O[C@H](CO)[C@@H](O)[C@H](O)[C@H]2O)[C@H](O)[C@@H](O)[C@@H]1O
logP [12]: -3.76

O=c1ccn(CCO)c(C(O)c2ccccc2)c1O (stereo not drawn)
logP [13]: 0.58

C[C@@H](OC(=O)N(N(CCCl)S(C)(=O)=O)S(C)(=O)=O)c1ccc([N+](=O)[O-])cc1
logD [14]: 2.15

O=C1N=C(N2CCOCC2)CN1c1ccc(Cl)cc1
logD [15]: 1.32

C(=C\c1ccccc1)/c1ccccc1
logP [16]: 4.59

CNc1ncnc2c1ncn2Cc1ccccc1F
logD [17]: 1.86

CCN(CC)CCOC(=O)c1ccc(N)cc1
logP [18]: 2.1

Cc1c(Cl)cccc1Nc1ccccc1C(=O)O
logD [19]: 4.18

Nc1ccc(N)c2c1C(=O)c1ccccc1C2=O
logD [20]: 3

O=C(c1ccc(Cl)cc1)c1cc(F)ccc1O
logD [21]: 4.05

C=CCOC(=O)c1ccccc1C(=O)OCC=C
logP [22]: 3.23

CCCCc1c(C)nc(NCC)nc1OS(=O)(=O)N(C)C
logD [23]: 2.7

CCc1c(O)c(=O)ccn1CCOC(=O)C(C)C
logD [24]: 0.7

CCCC(=O)OCOC(=O)c1ccccc1OC(C)=O
logD [25]: 2.5

O=C(O)c1cccnc1Nc1cccc(C(F)(F)F)c1
logD [26]: 2.95

CC1c2nc3ccccc3c(=O)n2CCN1C (stereo not drawn)
logP [27]: 0.64

CON=C1C=C(C#Cc2csc(CF)n2)CCC1
logD [28]: 1.6

CCOC(=O)[C@H](CS)NCCN[C@@H](CS)C(=O)OCC
logD [29]: 1.4

CCC1(c2ccccc2)C(=O)NC(=O)N(C)C1=O (stereo not drawn)
logD [30]: 1.84

CC(=O)C1=CCCN(NC(=O)c2ccccc2)C1
logP [31]: -0.1

O=c1[nH]c(=O)n(C2CC(O)C(CO)O2)cc1-c1cn(CCF)nn1 (stereo not drawn)
logD [32]: -1.33

CCC(C(=O)Oc1ccccc1)C(C)C (stereo not drawn)
logP [33]: 4.2

c1ccc(CCc2ccccc2)cc1
logP [34]: 4.6

Nc1ccc2cc3ccccc3cc2c1
logP [35]: 4.13

Cc1cc(NC(=O)C2=C(O)c3ccccc3S(=O)(=O)N2C)no1
logP [36]: 2.83

COc1ccc(C(=O)c2ccncc2)cc1
logP [37]: 1.94

CCOP(=S)(Oc1ccc([N+](=O)[O-])cc1)c1ccccc1 (stereo not drawn)
logD [38]: 3.85

Nc1ccc(-c2cn3cc(I)ccc3n2)cc1
logD [39]: 3.58

Cc1cc2c(ccc3c(C)cc(=O)[nH]c32)o1
logP [40]: 2.21

COc1cc(C=CC(=O)C=C(C)O)cc(I)c1O
logP [41]: 1.35

Cc1cnc(NC(=O)C2=C(O)c3ccccc3S(=O)(=O)N2C)s1
logD [42]: 2.34

O=C(O)Cc1ccccc1Oc1ccc(Cl)cc1Cl
logP [43]: 4.8

Cn1c(CC(=O)O)cnc1C(=O)c1ccccc1
logD [44]: 0.22

CN(CCc1ccccc1)C(=O)c1ccc[nH]1
logD [45]: 1.65

Cc1c(C)c2ccc3occc3c2oc1=O
logP [46]: 2.9

CC1=C(N)C(=O)c2c(COC(N)=O)c3n(c2C1=O)CC(N1CC1)C3N1CC1 (stereo not drawn)
logD [47]: 0.23

— the SangsterLogP compilation
